Assay results from PubChem BioAssay AID248 (DTP/NCI, 2004).
Where “and” joins values, the source holds several entries; their conditions need not be identical. Equal values may be shown once. Inconclusive results and toxic doses are left out.

System: L1210 leukemia ip in BDF1 mice, survival T/C
Test: NCI In Vivo Anticancer Drug Screen. Data for tumor model L1210 Leukemia (intraperitoneal) in B6D2F1 (BDF1) mice
Settings: endpoint: mean survival time, higher = longer survival
Outline: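 Antitumor effect is assessed in tumor-bearing animals. Survival in the compound arm is compared with a vehicle-dosed control arm and expressed as their quotient.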

[1] = dose: 50.0 mg/kg/injection, schedule: Q01DX009 (ip), vehicle: saline with Tween-80
[2] = dose: 100.0 mg/kg/injection, schedule: Q01DX009 (ip), vehicle: saline with Tween-80
[3] = dose: 200.0 mg/kg/injection, schedule: Q01DX009 (ip), vehicle: saline with Tween-80
[4] = dose: 100.0 mg/kg/injection, schedule: Q04DX003 (ip), vehicle: saline with Tween-80
[5] = dose: 200.0 mg/kg/injection, schedule: Q04DX003 (ip), vehicle: saline with Tween-80
[6] = dose: 25.0 mg/kg/injection, schedule: Q01DX009 (ip), vehicle: saline with Tween-80
[7] = dose: 100.0 mg/kg/injection, schedule: Q04DX003 (ip), vehicle: Klucel (hydroxypropylcellulose) (HPC)
[8] = dose: 400.0 mg/kg/injection, schedule: Q04DX003 (ip), vehicle: saline with Tween-80
[9] = dose: 50.0 mg/kg/injection, schedule: Q01DX009 (ip), vehicle: Klucel (hydroxypropylcellulose) (HPC)
[10] = dose: 100.0 mg/kg/injection, schedule: Q01DX001 (ip), vehicle: saline
[11] = dose: 200.0 mg/kg/injection, schedule: Q01DX001 (ip), vehicle: saline
[12] = dose: 400.0 mg/kg/injection, schedule: Q01DX001 (ip), vehicle: saline

COCC(CNO)OC(=O)c1ccc(N)cc1 (stereo not drawn)
T/C (dose: 55.0 mg/kg/injection, schedule: Q01DX Z (ip), vehicle: saline): 89 % of control | T/C (dose: 125.0 mg/kg/injection, schedule: Q01DX Z (ip), vehicle: saline): 100 % of control

CC1(C)C=CS1(=O)=O
T/C [1]: 98 % of control | T/C [2]: 102 % of control | T/C [3]: 95 % of control

CCCP(=S)(CCC)N(C)C
T/C [4]: 101 % of control | T/C [5]: 104 % of control

CCOC(=O)Nc1ccc(C)c(Cl)c1
T/C (dose: 100.0 mg/kg/injection, schedule: Q01DX009 (ip), vehicle: Klucel (hydroxypropylcellulose) (HPC)): 105 % of control | T/C (dose: 200.0 mg/kg/injection, schedule: Q01DX009 (ip), vehicle: Klucel (hydroxypropylcellulose) (HPC)): 108 % of control | T/C (dose: 400.0 mg/kg/injection, schedule: Q01DX009 (ip), vehicle: Klucel (hydroxypropylcellulose) (HPC)): 103 % of control

C[n+]1c(/C=C/c2ccc3cccc(O)c3n2)ccc2cccc(O)c21
T/C (dose: 12.5 mg/kg/injection, schedule: Q01DX001 (ip), vehicle: saline): 100 % of control | T/C (dose: 12.5 mg/kg/injection, schedule: Q01DX009 (ip), vehicle: saline with Tween-80): 106 % of control | T/C (dose: 12.5 mg/kg/injection, schedule: Q04DX003 (ip), vehicle: saline): 96 % of control | T/C (dose: 25.0 mg/kg/injection, schedule: Q01DX001 (ip), vehicle: saline): 107 % of control | T/C [6]: 95 % of control | T/C (dose: 25.0 mg/kg/injection, schedule: Q04DX003 (ip), vehicle: saline): 97 % of control | T/C (dose: 50.0 mg/kg/injection, schedule: Q01DX001 (ip), vehicle: saline): 102 % of control | T/C (dose: 50.0 mg/kg/injection, schedule: Q04DX003 (ip), vehicle: saline): 96 % of control

CCOC(=O)c1cnc(SC)nc1N(C)c1ccccc1
T/C (dose: 44.0 mg/kg/injection, schedule: Q04DX003 (ip), vehicle: Klucel (hydroxypropylcellulose) (HPC)): 98 % of control | T/C (dose: 66.0 mg/kg/injection, schedule: Q04DX003 (ip), vehicle: Klucel (hydroxypropylcellulose) (HPC)): 99 % of control | T/C (dose: 67.0 mg/kg/injection, schedule: Q04DX003 (ip), vehicle: Klucel (hydroxypropylcellulose) (HPC)): 95 % of control | T/C [7]: 98 % of control and 101 % of control | T/C (dose: 150.0 mg/kg/injection, schedule: Q04DX003 (ip), vehicle: Klucel (hydroxypropylcellulose) (HPC)): 95 % of control and 97 % of control

CC1NCCNCCNCCNC(C)c2cccc1n2 (stereo not drawn)
T/C (dose: 25.0 mg/kg/injection, schedule: Q04DX002 (ip), vehicle: saline): 90 % of control | T/C (dose: 50.0 mg/kg/injection, schedule: Q04DX002 (ip), vehicle: saline): 107 % of control | T/C (dose: 100.0 mg/kg/injection, schedule: Q04DX002 (ip), vehicle: saline): 89 % of control

CN(C)N(P(N)(Cl)(c1ccccc1)c1ccccc1)P(N)(Cl)(c1ccccc1)c1ccccc1
T/C (dose: 5.0 mg/kg/injection, schedule: Q01DX001 (ip), vehicle: steriod suspending solution): 100 % of control | T/C (dose: 10.0 mg/kg/injection, schedule: Q01DX001 (ip), vehicle: steriod suspending solution): 105 % of control | T/C (dose: 20.0 mg/kg/injection, schedule: Q01DX001 (ip), vehicle: steriod suspending solution): 97 % of control | T/C (dose: 40.0 mg/kg/injection, schedule: Q01DX001 (ip), vehicle: steriod suspending solution): 103 % of control | T/C (dose: 80.0 mg/kg/injection, schedule: Q01DX001 (ip), vehicle: steriod suspending solution): 94 % of control

CC(=O)N1Cc2ccc(/C=C(/C#N)C(N)=O)n2Cc2cc3c(cc21)OCO3
T/C (dose: 25.0 mg/kg/injection, schedule: Q04DX002 (ip), vehicle: Klucel (hydroxypropylcellulose) (HPC)): 91 % of control | T/C (dose: 50.0 mg/kg/injection, schedule: Q04DX002 (ip), vehicle: Klucel (hydroxypropylcellulose) (HPC)): 98 % of control | T/C (dose: 100.0 mg/kg/injection, schedule: Q04DX002 (ip), vehicle: Klucel (hydroxypropylcellulose) (HPC)): 91 % of control

CN(C)N=Nc1ccc(S(=O)(=O)Nc2ncccn2)cc1
T/C (dose: 100.0 mg/kg/injection, schedule: Q04DX002 (ip), vehicle: saline with Tween-80): 114 % of control | T/C (dose: 264.0 mg/kg/injection, schedule: Q04DX003 (ip), vehicle: saline with Tween-80): 100 % of control | T/C (dose: 400.0 mg/kg/injection, schedule: Q04DX002 (ip), vehicle: saline with Tween-80): 177 % of control | T/C [8]: 105 % of control | T/C (dose: 400.0 mg/kg/injection, schedule: Q04DX003 (ip), vehicle: saline): 176 % of control | T/C (dose: 600.0 mg/kg/injection, schedule: Q04DX003 (ip), vehicle: saline): 124 % of control

Cc1nc2ccccc2nc1CBr
T/C (dose: 3.2 mg/kg/injection, schedule: Q01DX009 (ip), vehicle: Klucel (hydroxypropylcellulose) (HPC)): 103 % of control | T/C (dose: 6.3 mg/kg/injection, schedule: Q01DX009 (ip), vehicle: Klucel (hydroxypropylcellulose) (HPC)): 100 % of control | T/C (dose: 12.5 mg/kg/injection, schedule: Q01DX009 (ip), vehicle: Klucel (hydroxypropylcellulose) (HPC)): 105 % of control | T/C (dose: 12.5 mg/kg/injection, schedule: Q04DX003 (ip), vehicle: saline with Tween-80): 98 % of control | T/C (dose: 25.0 mg/kg/injection, schedule: Q01DX009 (ip), vehicle: Klucel (hydroxypropylcellulose) (HPC)): 97 % of control | T/C (dose: 25.0 mg/kg/injection, schedule: Q04DX003 (ip), vehicle: saline with Tween-80): 89 % of control | T/C [9]: 102 % of control | T/C (dose: 50.0 mg/kg/injection, schedule: Q04DX003 (ip), vehicle: saline with Tween-80): 98 % of control

OC1CC2CCC(C1)N2 (stereo not drawn)
T/C (dose: 75.0 mg/kg/injection, schedule: Q01DX001 (ip), vehicle: saline): 95 % of control | T/C (dose: 150.0 mg/kg/injection, schedule: Q01DX001 (ip), vehicle: saline): 91 % of control

CN(C)Cc1cccc2ccccc12
T/C [9]: 95 % of control

Nc1ncnc(N)c1NC(=O)c1cc(Cl)cc(Cl)c1
T/C [7]: 91 % of control | T/C (dose: 400.0 mg/kg/injection, schedule: Q04DX003 (ip), vehicle: Klucel (hydroxypropylcellulose) (HPC)): 86 % of control

CN(C)S(=O)(=O)c1ccc(NC(=O)OC(c2ccccc2)(c2ccccc2)c2ccccc2)cc1
T/C [10]: 96 % of control | T/C [11]: 92 % of control | T/C [12]: 96 % of control

OCC1OC(n2cnc3ccccc32)C(O)C1O (stereo not drawn)
T/C [10]: 100 % of control | T/C [11]: 100 % of control | T/C [12]: 95 % of control

CCCCN(CCCC)C(=O)C1C=C2c3cccc4[nH]cc(c34)CC2N(C#N)C1 (stereo not drawn)
T/C [6]: 97 % of control | T/C [1]: 91 % of control | T/C [2]: 94 % of control | T/C [4]: 101 % of control | T/C [3]: 87 % of control | T/C [5]: 100 % of control | T/C [8]: 96 % of control

COc1ccc(C2=CC(=O)C(c3ccc(OC)cc3)=CC2=O)cc1
T/C (dose: 20.0 mg/kg/injection, schedule: Q01DX009 (ip), vehicle: gum acacia): 88 % of control | T/C (dose: 20.0 mg/kg/injection, schedule: Q04DX003 (ip), vehicle: gum acacia): 86 % of control | T/C (dose: 40.0 mg/kg/injection, schedule: Q04DX003 (ip), vehicle: gum acacia): 92 % of control | T/C (dose: 80.0 mg/kg/injection, schedule: Q01DX009 (ip), vehicle: gum acacia): 97 % of control | T/C (dose: 80.0 mg/kg/injection, schedule: Q04DX003 (ip), vehicle: gum acacia): 91 % of control

c1ccc(-c2cc(-c3ccccc3)c(-c3ccccc3)o2)cc1
T/C (dose: 50.0 mg/kg/injection, schedule: Q01DX001 (ip), vehicle: Klucel (hydroxypropylcellulose) (HPC)): 92 % of control | T/C (dose: 100.0 mg/kg/injection, schedule: Q01DX001 (ip), vehicle: Klucel (hydroxypropylcellulose) (HPC)): 100 % of control | T/C (dose: 200.0 mg/kg/injection, schedule: Q01DX001 (ip), vehicle: Klucel (hydroxypropylcellulose) (HPC)): 92 % of control

CCOC(OCC)c1nc(N)nc(N)c1-c1ccc(Cl)c(Cl)c1
T/C (dose: 11.0 mg/kg/injection, schedule: Q01DX009 (ip), vehicle: other): 98 % of control | T/C (dose: 22.5 mg/kg/injection, schedule: Q01DX009 (ip), vehicle: other): 101 % of control | T/C (dose: 45.0 mg/kg/injection, schedule: Q01DX009 (ip), vehicle: other): 101 % of control | T/C (dose: 89.0 mg/kg/injection, schedule: Q01DX009 (ip), vehicle: saline): 102 % of control | T/C (dose: 90.0 mg/kg/injection, schedule: Q01DX009 (ip), vehicle: other): 115 % of control | T/C [10]: 100 % of control | T/C (dose: 134.0 mg/kg/injection, schedule: Q01DX009 (ip), vehicle: saline): 119 % of control | T/C [11]: 107 % of control | T/C (dose: 300.0 mg/kg/injection, schedule: Q01DX009 (ip), vehicle: saline): 101 % of control
